Drawing on ChEMBL document CHEMBL1909046, “DrugMatrix in vitro pharmacology data”, this text covers IC50 and Ki for 4 compounds.

Experiment [1] has as its target Mitogen-activated protein kinase 1 (Homo sapiens, UniProt P28482). In words: DRUGMATRIX: Protein Serine/Threonine Kinase, ERK2 enzyme inhibition (substrate: Myelin Basic Protein). Also noted: species or system Escherichia coli. The conditions noted are these: Not Active = under 50% inhibition at 10 µM.
For experiment [2], the target named is T1, Neuropeptide Y receptor type 2 (Homo sapiens, UniProt P49146). Further: in other assays of this panel Not Active means under 50% inhibition at 10 µM.
T1 sequence (P49146 whole entry): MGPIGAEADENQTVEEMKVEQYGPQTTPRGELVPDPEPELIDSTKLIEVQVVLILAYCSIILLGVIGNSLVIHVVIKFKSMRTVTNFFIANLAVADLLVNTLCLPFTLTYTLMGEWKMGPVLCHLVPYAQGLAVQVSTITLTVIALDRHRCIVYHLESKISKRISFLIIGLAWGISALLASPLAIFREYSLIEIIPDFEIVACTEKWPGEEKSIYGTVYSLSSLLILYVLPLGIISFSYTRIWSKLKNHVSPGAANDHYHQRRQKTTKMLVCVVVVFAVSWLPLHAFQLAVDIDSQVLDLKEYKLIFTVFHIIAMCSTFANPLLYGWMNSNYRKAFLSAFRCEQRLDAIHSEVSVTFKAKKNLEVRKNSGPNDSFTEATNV
The experiment is classed as cell membranes, KAN-TS, Membrane. The conditions noted are these: kan-ts.

In experiment [3] the target is T2, Type-2 angiotensin II receptor (Homo sapiens, UniProt P50052). Further: in other assays of this panel Not Active means under 50% inhibition at 10 µM.
T2 sequence (P50052 whole entry): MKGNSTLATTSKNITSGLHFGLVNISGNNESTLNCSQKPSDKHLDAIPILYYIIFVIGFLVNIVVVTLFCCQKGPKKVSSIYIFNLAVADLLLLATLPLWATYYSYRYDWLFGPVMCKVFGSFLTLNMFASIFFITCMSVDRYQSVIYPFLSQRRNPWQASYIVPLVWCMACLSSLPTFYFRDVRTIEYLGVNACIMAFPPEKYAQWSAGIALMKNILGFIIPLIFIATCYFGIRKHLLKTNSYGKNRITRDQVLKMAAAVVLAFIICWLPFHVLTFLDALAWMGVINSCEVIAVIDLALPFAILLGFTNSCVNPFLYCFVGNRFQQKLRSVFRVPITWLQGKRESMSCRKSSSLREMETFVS
The experiment is classed as cell-based. Particulars: cho-k1.

Experiment [4] addresses cGMP-specific 3',5'-cyclic phosphodiesterase (Homo sapiens, UniProt O76074). Kind of experiment: DRUGMATRIX: Phosphodiesterase PDE5 enzyme inhibition (substrate: [3H]cGMP + cGMP). The class given is tissue-based, Platelet. The conditions noted are these: platelet; Not Active = under 50% inhibition at 10 µM.
Another experiment has as its target Estrogen receptor beta (Homo sapiens, UniProt Q92731). Particulars: sf9. Further: in other assays of this panel Not Active means under 50% inhibition at 10 µM.
A short description of experiment [5]: DRUGMATRIX: Nicotinic Acetylcholine radioligand binding (ligand: [125I] Epibatidine). The conditions noted are these: imr-32; Not Active = under 50% inhibition at 10 µM. The experiment is classed as cell membranes, Membrane.
Another experiment addresses D(3) dopamine receptor (Homo sapiens, UniProt P35462). Kind of experiment: DRUGMATRIX: Dopamine D3 radioligand binding (ligand: [3H] Spiperone). The experiment is classed as cell membranes, CHO, Membrane.

Chain of Mitogen-activated protein kinase 1 (P28482 whole entry): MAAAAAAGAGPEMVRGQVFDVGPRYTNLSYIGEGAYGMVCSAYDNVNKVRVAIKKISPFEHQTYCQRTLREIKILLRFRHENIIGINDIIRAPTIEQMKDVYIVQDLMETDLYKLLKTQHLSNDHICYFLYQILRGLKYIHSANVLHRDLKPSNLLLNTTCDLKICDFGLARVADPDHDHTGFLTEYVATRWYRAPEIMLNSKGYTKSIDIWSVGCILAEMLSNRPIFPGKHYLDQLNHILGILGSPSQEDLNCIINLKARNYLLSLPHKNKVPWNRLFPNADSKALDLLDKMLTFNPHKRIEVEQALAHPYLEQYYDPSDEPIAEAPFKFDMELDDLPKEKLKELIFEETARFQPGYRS
Chain of Estrogen receptor beta (Q92731 whole entry): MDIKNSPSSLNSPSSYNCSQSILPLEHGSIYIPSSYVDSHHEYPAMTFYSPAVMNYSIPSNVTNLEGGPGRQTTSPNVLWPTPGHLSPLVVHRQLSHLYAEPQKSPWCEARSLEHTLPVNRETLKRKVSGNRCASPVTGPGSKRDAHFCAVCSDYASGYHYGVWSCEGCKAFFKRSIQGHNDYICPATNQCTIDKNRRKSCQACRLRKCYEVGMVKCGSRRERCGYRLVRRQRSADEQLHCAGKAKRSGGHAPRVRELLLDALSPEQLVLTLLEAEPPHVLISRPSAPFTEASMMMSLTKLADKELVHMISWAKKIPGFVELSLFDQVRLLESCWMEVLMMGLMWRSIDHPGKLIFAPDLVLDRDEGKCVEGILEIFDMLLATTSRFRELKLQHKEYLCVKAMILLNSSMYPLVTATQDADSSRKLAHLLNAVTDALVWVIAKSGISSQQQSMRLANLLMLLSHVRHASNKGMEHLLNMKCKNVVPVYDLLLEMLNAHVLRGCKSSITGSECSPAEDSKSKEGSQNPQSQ
Chain of D(3) dopamine receptor (P35462 whole entry): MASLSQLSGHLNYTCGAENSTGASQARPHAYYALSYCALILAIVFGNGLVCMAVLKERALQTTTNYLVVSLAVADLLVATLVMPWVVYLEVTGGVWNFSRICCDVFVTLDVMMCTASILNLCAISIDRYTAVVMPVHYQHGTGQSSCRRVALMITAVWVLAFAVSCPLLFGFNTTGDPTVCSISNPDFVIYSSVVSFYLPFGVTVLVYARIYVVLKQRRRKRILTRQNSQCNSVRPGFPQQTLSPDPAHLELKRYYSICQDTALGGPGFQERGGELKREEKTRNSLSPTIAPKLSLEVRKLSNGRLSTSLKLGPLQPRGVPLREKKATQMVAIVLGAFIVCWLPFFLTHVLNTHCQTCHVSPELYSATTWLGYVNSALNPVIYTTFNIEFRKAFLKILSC

Usually IC50 stands for the concentration at which inhibition is half-maximal. Usually Ki stands for the dissociation constant of the complex between target and ligand, obtained from inhibition or displacement. As to `COc1cc2nc(N3CCN(C(=O)C4CCCO4)CC3)nc(N)c2cc1OC` (stereo not drawn) [TERAZOSIN], the IC50 result (in experiment [1]; in experiment [2]; in experiment [3]; in experiment [4]; at Estrogen receptor beta; in experiment [5]) was “Not Active” each time. In addition, the half-inhibitory concentration (IC50) entry on D(3) dopamine receptor (cho) is “Not Active”. In addition, the Ki result in experiment [5] is “Not Active”.

`CC(c1cc2ccccc2s1)N(O)C(N)=O` (stereo not drawn) [ZILEUTON]: the IC50 result (in experiment [1]; in experiment [2]; in experiment [3]; in experiment [4]; against Estrogen receptor beta; in experiment [5]) was “Not Active” in each case. Besides, the IC50 entry at D(3) dopamine receptor (cho) is listed as “Not Active”. In experiment [5], the Ki result is “Not Active”.

`CCN(CC)CCNC(=O)c1cc(S(C)(=O)=O)ccc1OC` [TIAPRIDE]: the 50% inhibitory concentration (IC50) entry (in experiment [1]; in experiment [2]; in experiment [3]; in experiment [4]; against Estrogen receptor beta; in experiment [5]) was “Not Active” in each case. Besides, the IC50 on D(3) dopamine receptor (read-out: IC50) stood at 1150 nM. Also, the inhibition constant (Ki) entry in experiment [5] was “Not Active”; at D(3) dopamine receptor (read-out: Ki) it was 390 nM.

As for `CCCCOc1cc(CC2CNC(=O)N2)ccc1OC` (stereo not drawn) [RO-201724], the IC50 entry (in experiment [1]; in experiment [2]; in experiment [3]; in experiment [4]; on Estrogen receptor beta; in experiment [5]) was “Not Active” in each case. Also, the IC50 entry on D(3) dopamine receptor (cho) was “Not Active”. Further, the Ki entry in experiment [5] was “Not Active”.
